Data reported in patent US9394284B2, “Compounds act at multiple prostaglandin receptors giving a general anti-inflammatory response” (Allergan, Inc., priority 2010, dated 2016).

Tests used:
Type in all cases: cell-based
[1] = biological target: T1, human prostanoid DP1 receptor (Homo sapiens, UniProt Q13258); assay: FLIPR Ca2+ signaling antagonist assay, DP1 receptor stable cell line; conditions: HEK-293 EBNA stable cell line; standard agonist BW 245C; NA = inactive (no antagonism or Kb 10,000 nM); PAg, Ag not defined
T1 construct: expressed in transfected cells
T1 sequence (Q13258 1-359): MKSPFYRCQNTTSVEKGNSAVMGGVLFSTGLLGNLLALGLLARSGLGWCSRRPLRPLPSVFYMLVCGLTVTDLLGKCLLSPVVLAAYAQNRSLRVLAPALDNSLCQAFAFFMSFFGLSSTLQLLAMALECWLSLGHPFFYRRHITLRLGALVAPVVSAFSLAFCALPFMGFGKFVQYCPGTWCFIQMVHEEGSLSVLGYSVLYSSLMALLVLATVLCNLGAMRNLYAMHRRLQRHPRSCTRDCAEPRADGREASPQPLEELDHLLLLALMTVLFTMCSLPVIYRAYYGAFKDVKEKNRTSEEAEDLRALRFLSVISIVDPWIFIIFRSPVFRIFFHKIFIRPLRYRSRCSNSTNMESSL
Protocol: (§1) The above compounds were tested for PG antagonist activity as follows using human recombinant prostanoid receptor (DP1, EP1-4, FP, IP and TP) stable cell lines:
(§2) In order to measure the response of Gs and Gi coupled prostanoid receptors as a Ca^2+ signal, chimeric G protein cDNAs were used. Stable cell lines over-expressing human prostanoid DP1, EP1-4, FP, IP, and TP receptors were established as follows:
(§3) Briefly, human prostanoid DP1, EP2, and EP4 receptor cDNAs were co-transfected with chimeric Gqs cDNA containing a haemagglutanin (HA) epitope; human prostanoid EP3 receptors were co-transfected with chimeric Gqi-HA; human EP1, FP, IP, and TP receptor cDNAs were expressed with no exogenous G-proteins. Gqs and Gqi chimeric cDNAs (Molecular Devices, Sunnyvale, Calif., U.S.A.), as well as cDNAs of prostanoid receptors, were cloned into a pCEP4 vector with a hygromycin B selection marker. Transfection into HEK-293 EBNA (Epstein-Barr virus nuclear antigen) cells was achieved by the FuGENE 6 transfection Reagent (Roche Applied Science, Indianapolis, Ind., USA). Stable transfectants were selected according to hygromycin resistance. Because Gqs and Gqi contained an HA epitope, G-protein expression was detected by Western blotting analysis using anti-mouse HA monoclonal antibody and horseradish peroxidase (HRP)-conjugated secondary antibody, while functional expression of prostanoid receptors was detected by FLIPR screening (Matias et al., 2004). These stable cell lines were validated using previously published antagonists at 10 μM against serial dilutions of standard agonists by FLIPR functional assays for Ca^2+ Signaling (as described below).
(§4) Ca^2+ signaling studies were performed using a FLIPR TETRA system (Molecular Devices, Sunnyvale, Calif., USA) in the 384-format. This is a high-throughput instrument for cell-based assays to monitor Ca^2+ signaling associated with GPCRs and ion channels. Cells were seeded at a density of 5×10^4 cells/well in BioCoat poly-D-lysine coated, black wall, clear bottom 384-well plates (BD Biosciences, Franklin lakes, NJ, USA) and allowed to attach overnight in an incubator at 37° C. The cells were then washed twice with HBSS-HEPES buffer (Hanks' balanced salt solution without bicarbonate and phenol red, 20 mM HEPES, pH 7.4) using an ELx405 Select CW Microplate Washer (BioTek, Winooski, Vt., USA). After 60 min of dye-loading in the dark using the Ca^2+-sensitive dye Fluo-4AM (Invitrogen, Carlsbad, Calif., USA), at a final concentration of 2×10^−6M, the plates were washed 4 times with HBSS-HEPES buffer to remove excess dye and leaving 50 μl of buffer in each well. The plates were then placed in the FLIPR TETRA instrument and allowed to equilibrate at 37° C. AGN-211377 was added in a 25 μl volume to each well to give final concentrations of 0.1 μM, 0.3 μM, 1 μM, 3 μM, 10 μM, and 30 μM; or 0.067 μM, 0.1 μM, 0.2 μM, 0.3 μM, 0.67 μM, and 1 μM for cells over-expressing TP receptors. After 4.5 minutes, a 7-point serial dilution of the standard agonist for the corresponding receptor, in a 25 μl volume was injected at the final concentrations from 10^−11M to 10^−5M in 10-fold serial dilution increments for cells expressing human recombinant DP1, EP1, EP2, EP3, EP4, FP, and IP receptors. The dose range for the standard agonist for human recombinant TP receptors was from 10^−12 M to 10^−6 M. HBSS-HEPES buffer was used as the negative control for the standard agonists. Cells were excited with LED (light emitting diode) excitation at 470-495 nm and emission was measured through an emission filter at 515-575 nm. Assay plates were read for 3.5 minutes using the FLIPR^TETRA. The peak increase in fluorescence intensity was recorded for each well. On each plate, negative controls, dose response of positive controls, and co-treatments of antagonist-agonist for each dose were in triplicates.
(§5) Standard agonists were as follows: DP=BW 245C, EP1-EP4=PGE2, FP=17-phenyl-PGF2α, IP=Cicaprost, and TP=U-46619. […]

[2] = biological target: T2, human prostanoid TP receptor (Homo sapiens, UniProt P21731); assay: FLIPR Ca2+ signaling antagonist assay, TP receptor stable cell line; conditions: HEK-293 EBNA stable cell line; standard agonist U-46619; NA = inactive (no antagonism or Kb 10,000 nM); PAg, Ag not defined
T2 construct: expressed in transfected cells
T2 sequence (P21731 1-343): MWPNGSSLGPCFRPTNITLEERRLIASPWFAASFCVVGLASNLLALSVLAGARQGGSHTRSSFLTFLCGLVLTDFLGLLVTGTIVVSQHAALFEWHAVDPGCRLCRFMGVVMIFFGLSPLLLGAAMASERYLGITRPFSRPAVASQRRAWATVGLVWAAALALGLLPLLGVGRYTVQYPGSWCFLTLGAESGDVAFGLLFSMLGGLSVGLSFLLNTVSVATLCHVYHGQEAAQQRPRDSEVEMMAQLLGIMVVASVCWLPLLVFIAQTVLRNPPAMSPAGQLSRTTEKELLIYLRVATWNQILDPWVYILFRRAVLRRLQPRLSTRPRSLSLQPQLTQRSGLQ
Protocol: as §1, §2, §3, §4, §5

[3] = biological target: T3, human prostanoid EP4 receptor (Homo sapiens, UniProt P35408); assay: FLIPR Ca2+ signaling antagonist assay, EP4 receptor stable cell line; conditions: HEK-293 EBNA stable cell line; standard agonist PGE2; NA = inactive (no antagonism or Kb 10,000 nM); PAg, Ag not defined
T3 construct: expressed in transfected cells
T3 sequence (P35408 whole entry): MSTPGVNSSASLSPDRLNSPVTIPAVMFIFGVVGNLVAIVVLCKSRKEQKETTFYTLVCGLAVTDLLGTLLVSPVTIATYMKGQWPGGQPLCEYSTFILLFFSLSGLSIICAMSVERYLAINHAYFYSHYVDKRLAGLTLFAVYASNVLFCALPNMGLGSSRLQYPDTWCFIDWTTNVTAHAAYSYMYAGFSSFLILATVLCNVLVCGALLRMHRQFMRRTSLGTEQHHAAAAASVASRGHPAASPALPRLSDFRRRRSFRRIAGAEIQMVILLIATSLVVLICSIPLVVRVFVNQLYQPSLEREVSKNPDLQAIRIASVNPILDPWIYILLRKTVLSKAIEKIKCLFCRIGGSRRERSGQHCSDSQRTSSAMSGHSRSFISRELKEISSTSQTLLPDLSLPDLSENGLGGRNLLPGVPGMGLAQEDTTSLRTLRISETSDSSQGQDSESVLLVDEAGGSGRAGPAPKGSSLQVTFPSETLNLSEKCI
Protocol: as §1, §2, §3, §4, §5

[4] = biological target: T4, human prostanoid EP1 receptor (Homo sapiens, UniProt P34995); assay: FLIPR Ca2+ signaling antagonist assay, EP1 receptor stable cell line; conditions: HEK-293 EBNA stable cell line; standard agonist PGE2; NA = inactive (no antagonism or Kb 10,000 nM); PAg, Ag not defined
T4 construct: expressed in transfected cells
T4 sequence (P34995 1-402): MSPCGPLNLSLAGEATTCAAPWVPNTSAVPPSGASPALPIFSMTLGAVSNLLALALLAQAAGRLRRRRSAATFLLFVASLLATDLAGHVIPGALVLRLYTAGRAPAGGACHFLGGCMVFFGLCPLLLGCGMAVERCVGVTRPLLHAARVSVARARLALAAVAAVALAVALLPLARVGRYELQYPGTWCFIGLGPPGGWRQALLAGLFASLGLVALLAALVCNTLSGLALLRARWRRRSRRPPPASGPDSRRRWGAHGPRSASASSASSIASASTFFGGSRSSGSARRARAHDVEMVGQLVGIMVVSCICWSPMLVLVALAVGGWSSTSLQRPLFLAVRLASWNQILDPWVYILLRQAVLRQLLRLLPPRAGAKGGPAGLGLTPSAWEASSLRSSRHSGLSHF
Protocol: as §1, §2, §3, §4, §5

[5] = biological target: T5, human prostanoid FP receptor (Homo sapiens, UniProt P43088); assay: FLIPR Ca2+ signaling antagonist assay, FP receptor stable cell line; conditions: HEK-293 EBNA stable cell line; standard agonist 17-phenyl-PGF2α; NA = inactive (no antagonism or Kb 10,000 nM); PAg, Ag not defined
T5 construct: expressed in transfected cells
T5 sequence (P43088 whole entry): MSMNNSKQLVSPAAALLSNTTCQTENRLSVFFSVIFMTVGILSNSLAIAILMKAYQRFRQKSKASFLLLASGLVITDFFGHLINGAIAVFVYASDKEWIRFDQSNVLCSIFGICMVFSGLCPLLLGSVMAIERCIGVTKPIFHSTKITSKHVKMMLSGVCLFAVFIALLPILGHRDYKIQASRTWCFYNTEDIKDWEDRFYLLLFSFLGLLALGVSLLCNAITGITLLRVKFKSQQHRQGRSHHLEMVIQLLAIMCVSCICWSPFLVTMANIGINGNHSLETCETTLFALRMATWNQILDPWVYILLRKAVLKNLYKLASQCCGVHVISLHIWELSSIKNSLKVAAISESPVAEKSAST
Protocol: as §1, §2, §3, §4, §5

Row | Compound | Kb [1] [nM] | Kb [2] [nM] | Kb [3] [nM] | Kb [4] [nM] | Kb [5] [nM]
1 | CCC(CC)COc1ccccc1Cn1nc(CC(C)C(=O)O)cc1C (racemic) [Example 69, 3-{1-[2-(2-ethyl-butoxy)-benzyl]-5-methyl-1H-pyrazol-3-yl}-2-methyl-propionic acid] | 700 | 300 | 600 | 180 | 2500
2 | CCC(C)(CC)COc1ccc(Br)cc1Cn1nc(CCC(=O)O)cc1C [Example 11, 3-{1-[5-Bromo-2-(2-ethyl-2-methyl-butoxy)-benzyl]-5-methyl-1H-pyrazol-3-yl}-propionic acid] | 380 | 25 | 430 | 36 | 110
3 | Cc1cc(CCC(=O)O)nn1Cc1cc(Br)ccc1OCC1(C(F)(F)F)CCCC1 [Example 14, 3-[1-(5-Bromo-2-(1-trifluoromethylcyclopentylmethoxy)-benzyl)-5-methyl-1H-pyrazol-3-yl]-propionic acid] | 400 | 160 | 1900 | 180 | 1000
4 | Cc1cc(CCC(=O)NS(=O)(=O)c2ccccc2)nn1Cc1cc(Cl)ccc1OCc1ccc(Cl)cc1Cl [Example 28, N-(3-[1-(5-Chloro-2-(2,4-dichlorobenzyloxy)benzyl)-5-methyl-1H-pyrazol-3-yl]-propionyl)benzenesulfonamide] |  | 540 |  | 230 | 
5 | Cc1cc(CCC(=O)O)nn1Cc1cc(Cl)ccc1OCC1CCCO1 (centres unmarked) [Example 33, 3-[1-(5-Chloro-2-(tetrahydrofuran-2-yl-methoxy)benzyl)-5-methyl-1H-pyrazol-3-yl]-propionic acid] |  | 1000 |  | 800 | 4000
6 | Cc1cc(CCC(=O)O)nn1Cc1cc(Cl)ccc1OCC1(C(F)(F)F)CCCC1 [Example 37, 3-[1-(5-Chloro-2-(1-trifluoromethylcyclopentylmethoxy)benzyl)-5-methyl-1H-pyrazol-3-yl]-propionic acid] | 400 | 160 | 1900 | 180 | 1000
7 | Cc1cc(CCC(=O)NS(=O)(=O)C(F)(F)F)nn1Cc1cc(Cl)ccc1OCC(C)C [Example 44, N-(3-[1-(5-Chloro-2-(2-methylpropyloxy)benzyl)-5-methyl-1H-pyrazol-3-yl]-propionyl)C,C,C-trifluoromethanesulfon amide] | 800 | 5 | 500 | 14 | 500
8 | CCC(CC)COc1ccc(F)cc1Cn1nc(CCC(=O)O)cc1C [Example 47, 3-[1-[2-(2-Ethyl-butoxy)-5-fluoro-benzyl]-5-methyl-1H-pyrazol-3-yl]-propionic acid] | 240 | 100 | 400 | 370 | 2300
9 | COc1ccc(OCC2CC2)c(Cn2nc(CCC(=O)O)cc2C)c1 [Example 54, 3-[1-(2-Cyclopropylmethoxy-5-methoxy-benzyl)-5-methyl-1H-pyrazol-3-yl]-propionic acid] | 1700 | 1200 | 4700 | 560 | 1000
10 | CCC(CC)COc1ccc(C(N)=O)cc1Cn1nc(CCC(=O)O)cc1C [Example 61, 3-{1-[5-Carbamoyl-2-(2-ethyl-butoxy)-benzyl]-5-methyl-1H-pyrazol-3-yl}-propionic acid] |  | 1100 | 800 |  | 
11 | CCC(CC)COc1ccc(C(=O)O)cc1Cn1nc(CCC(=O)O)cc1C [Example 62, 3-{1-[5-Carboxy-2-(2-ethyl-butoxy)-benzyl]-5-methyl-1H-pyrazol-3-yl}-propionic acid] |  | 3700 |  | 2000 | 
